Experimental data from US12012597B2, “Cancer treatment using siRNA to modulate expression of PRDM2/RIZ protein” (ARIZ Precision Medicine, Inc., priority 2020, dated 2024).
Entries after “also recorded” stand apart in the source; their conditions may differ. d = 2'-deoxy (DNA); r = 2'-OH (RNA)

Columns and labels:
A549 lung cancer cells = test: MTS cell viability assay after siRNA transfection; format: cell-based, human; details: 100 nM siRNA; for Viability of the A549 lung cancer cells (change): DharmaFECT 1, after four days, FIG. 2; for relative cell viability: single exposure, after four days, relative to untreated cells
[1] = tested on: HCT116 colon cancer cells; test: Cell viability after siRNA transfection with or without 5-fluorouracil; details: 5-fluorouracil 25 μM added one day after transfection, after four days, relative to untreated cells, FIG. 4
Protocol: Where indicated, 5-fluorouracil (25 μM) was added one day after transfection. Media (with 5-flurouracil where indicated) was changed after two days, and after four days, percent cell viability was determined, relative to untreated cells.

RIZ2 mRNA [2] = test: qPCR of RIZ2 mRNA in siRNA-transfected A549 cells; format: cell-based, human
Protocol: (§1) RIZ1 and RIZ2 mRNA levels were determined in control and siRNA-transfected cells using qPCR. RNA was extracted from cells 48 hours after transfection, and mRNA expression levels were detected using PRDM isoform A and PRDM isoform C specific PCR primers. RIZ mRNA expression levels were determined relative to GAPDH mRNA expression levels. Scrambled siRNA was used a negative control, and Tox (Transfection control siRNA, commercially available) was used a positive control.

RIZ1 mRNA [3] = test: qPCR of RIZ1 mRNA in siRNA-transfected A549 cells; format: cell-based, human; details: qPCR relative to GAPDH mRNA
Protocol: as §1

RIZ2 mRNA [4] = test: RIZ2 mRNA level in HCT116 cells after siRNA; format: cell-based, human; details: FIG. 5
Protocol: as §1

RIZ1 mRNA [5] = test: RIZ1 mRNA level in HCT116 cells after siRNA; format: cell-based, human; details: FIG. 5
Protocol: as §1

[6] = tested on: KMS-11 multiple myeloma cell line; test: Viability of multiple myeloma cells after siRNA; format: cell-based; details: comparable to the Tox positive control, FIG. 8
Source text: In this example, the effect of siRNA ARIZ-011 was further tested on a multiple myeloma cell line, KMS-11. KMS-11 cell line was obtained from commercially available sources, and was originally derived from […] multiple myeloma patient's cells. These cells have characteristics of plasma cells.

## ARIZ-015: Double-stranded siRNA, sense SEQ ID NO: 5, antisense SEQ ID NO: 15, complementary to last 19 bases at 3′ end of RIZ2 mRNA (sense GGACUUCAGGAACUUCCUGTT; antisense CAGGAAGUUCCUGAAGUCCTT; sugars from the 5' end r19 d2, backbone and T or U not given here)
A549 lung cancer cells
  Viability of the A549 lung cancer cells (change): decreased
  relative cell viability: 70%

## O=c1[nH]cc(F)c(=O)[nH]1 [5-fluorouracil]
[1]; Homo sapiens, HCT-116, read-out: decreased cell viability (killing) of HCT116 colon cancer cells, siRNA 100 nM
  cytotoxicity at 25 µM: 72 to 74%
[1]; siRNA 100 nM
  decreased cell viability (killing) of HCT116 colon cancer cells: 72%

## ARIZ-012: Double-stranded siRNA, sense SEQ ID NO: 2, antisense SEQ ID NO: 12, complementary to sequences shared by RIZ1 and RIZ2 mRNA (sense GUGUAGUGCUGUAAAGAAATT; antisense UUUCUUUACAGCACUACACTT; sugars from the 5' end r19 d2, backbone and T or U not given here)
A549 lung cancer cells
  Viability of the A549 lung cancer cells (change): decreased

## ARIZ-011: Unmodified double-stranded siRNA, sense SEQ ID NO: 1, antisense SEQ ID NO: 10, complementary to both RIZ1 and RIZ2 mRNA (sense GGGAGAGAUGAGAGAGAAATT; antisense UUUCUCUCUCAUCUCUCCCTT; RNA, all phosphodiester, T or U not given here)
A549 lung cancer cells
  Viability of the A549 lung cancer cells (change): decreased
  relative cell viability: 30%
RIZ2 mRNA [2]; 48 hours after transfection, relative to GAPDH mRNA, FIG. 3
  decrease in RIZ2 mRNA: ~75%
RIZ2 mRNA [2]; qPCR relative to GAPDH mRNA
  RIZ2 mRNA level (change): knockdown
RIZ1 mRNA [3]
  RIZ1 mRNA level (change): simultaneous increase in RIZ1 mRNA; also recorded: upregulated expression
RIZ2 mRNA [4]
  expression level of RIZ2 (change): selectively decreased
RIZ1 mRNA [5]
  RIZ1 mRNA (change): concurrent increase
[6]
  KMS-11 cell death in culture: about 80%
